Results reported in ChEMBL document CHEMBL5634181, “Genome Mining Leads to Diverse Sesquiterpenes with Anti-inflammatory Activity from an Arctic-Derived Fungus” (J Nat Prod, 2024).
The source made the active and inactive calls. The calls are words filed in the database; no cut-off is given here.

Tests used:
RAW264.7 [1] = experiment: Antiproliferative activity against LPS-induced mouse RAW264.7 cells assessed as reduction in cell viability > 40 uM incubated for 24 hrs by CCK-8 assay; format: functional, cell-based
RAW264.7 [2] = experiment: Anti-inflammatory activity against LPS-Induced mouse RAW264.7 cells assessed as reduction in NO release at 10 uM incubated for 24 hrs; format: functional, cell-based
RAW264.7 [3] = experiment: Anti-inflammatory activity against LPS-Induced mouse RAW264.7 cells assessed as inhibition rate of NO release at 10 uM incubated for 24 hrs relative to control; format: functional
RAW264.7 [4] = experiment: Anti-inflammatory activity against LPS-Induced mouse RAW264.7 cells assessed as suppression of p-ERK expression by Western blot analysis; format: functional, cell-based; conditions: dose 20-40 µM
RAW264.7 [5] = experiment: Anti-inflammatory activity against LPS-induced mouse RAW264.7 cells reduction in TNF-alpha mRNA level by RT-qPCR analysis; format: functional, cell-based; conditions: dose 20-40 µM
RAW264.7 [6] = experiment: Anti-inflammatory activity against LPS-Induced mouse RAW264.7 cells assessed as suppression of p-JNK expression by Western blot analysis; format: functional, cell-based; conditions: dose 20-40 µM
RAW264.7 [7] = experiment: Anti-inflammatory activity against LPS-induced mouse RAW264.7 cells reduction in IL-6 mRNA level by RT-qPCR analysis; format: functional, cell-based; conditions: dose 20-40 µM
Danio rerio [8] = organism: Danio rerio; experiment: (§1) Anti-inflammatory activity against CuSO4-induced transgenic Zebrafish acute inflammation model assessed as decrease in NLRP3 expression at 20 to 40 uM preincubated with CuSO4 for 24 hrs followed by compound addition and measured after 2 hrs by RT-qPCR analysis; format: functional, organism-based; conditions: dose 20-40 µM
RAW264.7 [9] = experiment: Anti-inflammatory activity against LPS-Induced mouse RAW264.7 cells assessed as suppression of NLRP3 expression at 20 to 40 uM by Western blot analysis; format: functional, cell-based; conditions: dose 20-40 µM
RAW264.7 [10] = experiment: Anti-inflammatory activity against LPS-induced mouse RAW264.7 cells reduction in IL-18 mRNA level by RT-qPCR analysis; format: functional, cell-based; conditions: dose 20-40 µM
Danio rerio [11] = organism: Danio rerio; experiment: Anti-inflammatory activity against CuSO4-induced transgenic Zebrafish acute inflammation model assessed as decrease in IL-6 expression at 20 to 40 uM preincubated with CuSO4 for 24 hrs followed by compound addition and measured after 2 hrs by RT-qPCR analysis; format: functional, organism-based; conditions: dose 20-40 µM
RAW264.7 [12] = experiment: Anti-inflammatory activity against LPS-induced mouse RAW264.7 cells reduction in IL-1beta mRNA level by RT-qPCR analysis; format: functional, cell-based; conditions: dose 20-40 µM
Danio rerio [13] = organism: Danio rerio; experiment: (§2) Anti-inflammatory activity against CuSO4-induced transgenic Zebrafish acute inflammation model assessed as zebrafish movement by measuring average velocity at 20 to 40 uM preincubated with CuSO4 for 24 hrs followed by compound addition and measured after 2 hrs by fluorescence microscopic analysis; format: functional, organism-based; conditions: dose 20-40 µM
Danio rerio [14] = organism: Danio rerio; experiment: Anti-inflammatory activity against CuSO4-induced transgenic Zebrafish acute inflammation model assessed as decrease in caspase-1 expression at 20 to 40 uM preincubated with CuSO4 for 24 hrs followed by compound addition and measured after 2 hrs by RT-qPCR analysis; format: functional, organism-based; conditions: dose 20-40 µM
Danio rerio [15] = organism: Danio rerio; experiment: as §2, with “decrease in total distance” for “average velocity”; format: functional, organism-based; conditions: dose 20-40 µM
Danio rerio [16] = organism: Danio rerio; experiment: as §1, with “migration of inflammatory cells to lateral line” for “NLRP3 expression”, “fluorescence microscopic” for “RT-qPCR”; format: functional, organism-based; conditions: dose 20-40 µM
RAW264.7 [17] = experiment: Anti-inflammatory activity against LPS-Induced mouse RAW264.7 cells assessed as suppression of p-p38 expression by Western blot analysis; format: functional, cell-based; conditions: dose 20-40 µM
Danio rerio [18] = organism: Danio rerio; experiment: Anti-inflammatory activity against CuSO4-induced transgenic Zebrafish acute inflammation model assessed as decrease in IL-1beta expression at 20 to 40 uM preincubated with CuSO4 for 24 hrs followed by compound addition and measured after 2 hrs by RT-qPCR analysis; format: functional, organism-based; conditions: dose 20-40 µM
RAW264.7 [19] = experiment: Cytotoxicity against LPS-induced mouse RAW264.7 cells assessed as effect on cell viability upto to 160 uM incubated for 24 hrs by CCK-8 assay; format: toxicity, cell-based; conditions: raw264.7, 24 h
Danio rerio [20] = organism: Danio rerio; experiment: Anti-inflammatory activity against CuSO4-induced transgenic Zebrafish acute inflammation model assessed as decrease in TNF-alpha expression at 20 to 40 uM preincubated with CuSO4 for 24 hrs followed by compound addition and measured after 2 hrs by RT-qPCR analysis; format: functional, organism-based; conditions: dose 20-40 µM
RAW264.7 [21] = experiment: Anti-inflammatory activity against LPS-Induced mouse RAW264.7 cells assessed as suppression of caspase-1 expression at 20 to 40 uM by Western blot analysis; format: functional, cell-based; conditions: dose 20-40 µM

In the case of `CC1=C2C[C@H](C(C)(C)O)CC[C@@]2(C)CCC1=O`, the Activity (RAW264.7 [1]) is reported as “Active”.
In the case of `CC(C)=C[C@H](O)C[C@]1(C)[C@@H]2C[C@H]1C(C)=CC2=O`, the Activity (RAW264.7 [1]) is reported as “inactive”.
In the case of `CC1=CC[C@@H]2[C@H](O)COC/C(C)=C\[C@@H](O)C[C@]12C`, the Activity (RAW264.7 [1]) is reported as “inactive”.
`CC(C)=C[C@H]1C[C@@](C)(O)[C@@H]2[C@@H](CC=C(C)[C@@H]2O)O1` was tested, and the Activity (RAW264.7 [1]) was “inactive”.
In the case of `CC(C)=C[C@H]1C[C@@](C)(O)[C@H]2CC=C(C)[C@@H](O)[C@H]2O1`, the Activity (RAW264.7 [1]) is reported as “inactive” and the Activity (RAW264.7 [2]) is reported as “Active”.
`CC1=CC[C@@H]([C@@](C)(O)C/C(C)=C/[C@H](C)O)[C@@H](O)[C@H]1O` was tested, and the Activity (RAW264.7 [1]) was “inactive”.
For `C[C@@H]1C[C@H]2[C@@H]3CCC4=CC(=O)C=C[C@]4(C)[C@@]3(F)[C@@H](O)C[C@]2(C)[C@@]1(O)C(=O)CO` [DEXAMETHASONE], the Activity (RAW264.7 [1]) was “inactive” and the inhibition at 10 µM (RAW264.7 [3]) was 72%.
For `CC1=CC(=O)[C@H]2C[C@@H]1[C@]2(C)C/C=C/C(C)(C)O`, the Activity (RAW264.7 [1]) was “Active”.
In the case of `CO[C@]1([C@H](O)[C@@H](O)CC=C(C)C)C=CCC(C)=C1C`, the Activity (RAW264.7 [1]) is reported as “inactive”.
For `CC1=CC[C@@]2(C[C@H]1O)[C@H](C)CC[C@@H]2C(C)CO` (stereo partly specified), the Activity (RAW264.7 [4]) was “Dose-Dependent Effect”, the Activity (RAW264.7 [5]) was “Dose-Dependent Effect” and the Activity (RAW264.7 [6]) was “Dose-Dependent Effect”. The Activity (RAW264.7 [7]) was “Dose-Dependent Effect”, the Activity (Danio rerio [8]) was “Active” and the Activity (RAW264.7 [1]) was “inactive”. For the same compound, the Activity (RAW264.7 [9]) was “Active”, the Activity (RAW264.7 [10]) was “Dose-Dependent Effect” and the Activity (RAW264.7 [2]) was “Active”. For the same compound, the inhibition at 10 µM (RAW264.7 [3]) was 65%, the Activity (Danio rerio [11]) was “Active” and the Activity (RAW264.7 [12]) was “Dose-Dependent Effect”. For the same compound, the Activity (Danio rerio [13]) was “Active”, the Activity (Danio rerio [14]) was “Active” and the Activity (Danio rerio [15]) was “Active”. For the same compound, the Activity (Danio rerio [16]) was “Active”, the Activity (RAW264.7 [17]) was “Dose-Dependent Effect” and the Activity (Danio rerio [18]) was “Active”. For the same compound, the Activity (RAW264.7 [19]) was “Non-Toxic”, the Activity (Danio rerio [20]) was “Active” and the Activity (RAW264.7 [21]) was “Active”.
For `CC(C)=CCC[C@](C)(O)[C@@H]1CC=C(C)[C@@H](O)C1`, the Activity (RAW264.7 [1]) was “inactive” and the Activity (RAW264.7 [2]) was “Active”.
`CC(C)=CCC[C@](C)(O)[C@@H]1CC=C(C)[C@@H](O)[C@H]1O` was tested, and the Activity (RAW264.7 [1]) was “inactive”.
With `CC1=CC(=O)C[C@@]2(C)CC[C@H](C(C)(C)O)C[C@H]12` the Activity (RAW264.7 [1]) was “inactive” and the Activity (RAW264.7 [2]) was “Active”.
With `C=C1[C@H](O)CC[C@]2(C)CC[C@@H](C(C)(C)O)C[C@@H]12` the Activity (RAW264.7 [1]) was “inactive”.
In the case of `C=C1C[C@H](O)C[C@]2(C)CC[C@@H](C(C)(C)O)C[C@@H]12`, the Activity (RAW264.7 [1]) is reported as “inactive”.
`Cc1ccc([C@@](C)(O)C/C=C/C(C)(C)O)cc1` was tested, and the Activity (RAW264.7 [1]) was “inactive” and the Activity (RAW264.7 [2]) was “Active”.
